# Source: patent US20120202818A1, “UREIDOPHENYL SUBSTITUTED TRIAZINE DERIVATIVES AND THEIR THERAPEUTICAL APPLICATIONS” (CALIFORNIA CAPITAL EQUITY, LLC, priority 2009, published 2012)
# Columns and labels:
# Assay type in all cases: biochemical
# c-Src kinase = target: T1, c-Src kinase (Homo sapiens, UniProt P12931); assay: c-Src kinase assay (KinaseProfiler / Kinase HotSpot); details: compound at 1 μM; read-out: % Inhibition @1 μM cSrc
# T1 construct: purchased Millipore (KinaseProfiler service) and/or Reaction Biology Corp. (Kinase HotSpot service)
# Description: (§1) This example illustrated c-Src kinase, Aurora-A kinase, Flt3 kinase, Ret kinase and TrkA Kinase Assays of selected Compounds from this invention (referred to Daniele Fancelli et al, J. Med. Chem., 2006, 49 (24), pp 7247-7251). The KinaseProfiler™ Service Assay Protocols (Millipore) were used to test the kinase inhibiting activity of novel compounds from this invention. To do this, the buffer composition was as: 20 mM MOPS, 1 mM EDTA, 0.01% Brij-35, 5% Glycerol, 0.1% β-mercaptoethanol, 1 mg/mL BSA. Test compounds were initially dissolved in DMSO at the desired concentration, then serially diluted to the kinase assay buffer. In a final reaction volume of 25 μL, Aurora-A(h) (5-10 mU) is incubated with 8 mM MOPS pH 7.0, 0.2 mM EDTA, 200 μM LRRASLG (Kemptide), 10 mM MgAcetate and [γ^33P-ATP]. The reaction was initiated by the addition of the MgATP mix. After incubation for 40 minute at room temperature, the reaction was stopped by addition of 5 μL of a 3% phosphoric acid solution. 10 μL of the reaction was then spotted onto a P30 filtermat and washed three times for 5 minutes in 50 mM phosphoric acid and once in methanol prior to drying and scintillation counting. Wells containing substrate but no kinase and wells containing a phosphopeptide control were used to set 0% and 100% phosphorylation value, respectively.
# (§2) Also Kinase Hotspot ^SM kinase assay was used to test the compounds for IC50 or % inhibitions (Reaction Biology Corp.). Inhibitor IC50 values were determined by titration of compound at the optimal kinase concentration (Kinase EC50).
# Aurora-A kinase = target: T2, Aurora-A kinase (Homo sapiens, UniProt O14965); assay: Aurora-A kinase assay (KinaseProfiler / Kinase HotSpot); details: compound at 1 μM; read-out: % Inhibition @1 μM Auroro-A
# T2 construct: purchased Millipore (KinaseProfiler service) and/or Reaction Biology Corp. (Kinase HotSpot service)
# T2 sequence (O14965 1-403): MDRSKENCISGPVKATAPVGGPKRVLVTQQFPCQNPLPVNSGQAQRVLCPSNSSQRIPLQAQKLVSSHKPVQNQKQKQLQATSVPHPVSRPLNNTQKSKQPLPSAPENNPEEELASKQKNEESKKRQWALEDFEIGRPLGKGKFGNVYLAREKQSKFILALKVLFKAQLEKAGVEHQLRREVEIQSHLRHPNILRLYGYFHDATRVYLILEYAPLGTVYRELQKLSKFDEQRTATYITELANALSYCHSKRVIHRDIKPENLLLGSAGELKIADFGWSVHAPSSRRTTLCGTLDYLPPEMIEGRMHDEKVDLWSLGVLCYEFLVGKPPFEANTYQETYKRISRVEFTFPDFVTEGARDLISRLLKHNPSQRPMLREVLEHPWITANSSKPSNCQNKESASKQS
# Description: as §1, §2
# Flt3 kinase = target: T3, Flt3 kinase (Homo sapiens, UniProt P36888); assay: Flt3 kinase assay (KinaseProfiler / Kinase HotSpot); details: compound at 1 μM
# T3 construct: purchased Millipore (KinaseProfiler service) and/or Reaction Biology Corp. (Kinase HotSpot service)
# T3 sequence (P36888 27-993): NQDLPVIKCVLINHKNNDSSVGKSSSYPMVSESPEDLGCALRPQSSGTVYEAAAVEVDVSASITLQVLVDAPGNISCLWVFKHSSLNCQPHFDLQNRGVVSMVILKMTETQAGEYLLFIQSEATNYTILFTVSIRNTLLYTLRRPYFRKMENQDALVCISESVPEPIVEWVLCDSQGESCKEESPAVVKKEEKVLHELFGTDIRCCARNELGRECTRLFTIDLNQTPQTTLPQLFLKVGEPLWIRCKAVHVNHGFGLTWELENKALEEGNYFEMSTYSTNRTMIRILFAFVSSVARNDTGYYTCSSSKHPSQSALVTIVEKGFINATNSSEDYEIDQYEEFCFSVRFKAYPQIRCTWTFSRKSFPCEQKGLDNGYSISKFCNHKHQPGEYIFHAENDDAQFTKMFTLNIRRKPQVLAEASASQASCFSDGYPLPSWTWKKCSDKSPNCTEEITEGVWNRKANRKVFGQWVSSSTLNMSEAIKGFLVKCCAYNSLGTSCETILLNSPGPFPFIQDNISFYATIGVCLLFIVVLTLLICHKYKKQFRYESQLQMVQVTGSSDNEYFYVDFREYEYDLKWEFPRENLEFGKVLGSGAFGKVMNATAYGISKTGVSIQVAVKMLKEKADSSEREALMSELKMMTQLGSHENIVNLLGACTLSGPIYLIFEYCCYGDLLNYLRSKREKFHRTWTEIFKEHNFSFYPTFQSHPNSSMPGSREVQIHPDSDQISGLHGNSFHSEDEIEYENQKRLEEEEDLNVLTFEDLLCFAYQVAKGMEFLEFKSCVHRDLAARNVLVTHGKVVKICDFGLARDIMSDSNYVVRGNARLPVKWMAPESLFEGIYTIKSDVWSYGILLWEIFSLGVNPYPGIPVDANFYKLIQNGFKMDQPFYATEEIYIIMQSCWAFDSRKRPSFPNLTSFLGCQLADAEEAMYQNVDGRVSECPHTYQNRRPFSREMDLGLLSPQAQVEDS
# Description: as §1, §2
# Ret kinase = target: T4, Ret kinase (Homo sapiens, UniProt P07949); assay: Ret kinase assay (KinaseProfiler / Kinase HotSpot); details: compound at 1 μM
# T4 construct: purchased Millipore (KinaseProfiler service) and/or Reaction Biology Corp. (Kinase HotSpot service)
# Description: as §1, §2
# TrkA Kinase = target: T5, TrkA Kinase (Homo sapiens, UniProt P04629); assay: TrkA kinase assay (KinaseProfiler / Kinase HotSpot); details: compound at 1 μM
# T5 construct: purchased Millipore (KinaseProfiler service) and/or Reaction Biology Corp. (Kinase HotSpot service)
# Description: as §1, §2
# T4 sequence (P07949 29-1114): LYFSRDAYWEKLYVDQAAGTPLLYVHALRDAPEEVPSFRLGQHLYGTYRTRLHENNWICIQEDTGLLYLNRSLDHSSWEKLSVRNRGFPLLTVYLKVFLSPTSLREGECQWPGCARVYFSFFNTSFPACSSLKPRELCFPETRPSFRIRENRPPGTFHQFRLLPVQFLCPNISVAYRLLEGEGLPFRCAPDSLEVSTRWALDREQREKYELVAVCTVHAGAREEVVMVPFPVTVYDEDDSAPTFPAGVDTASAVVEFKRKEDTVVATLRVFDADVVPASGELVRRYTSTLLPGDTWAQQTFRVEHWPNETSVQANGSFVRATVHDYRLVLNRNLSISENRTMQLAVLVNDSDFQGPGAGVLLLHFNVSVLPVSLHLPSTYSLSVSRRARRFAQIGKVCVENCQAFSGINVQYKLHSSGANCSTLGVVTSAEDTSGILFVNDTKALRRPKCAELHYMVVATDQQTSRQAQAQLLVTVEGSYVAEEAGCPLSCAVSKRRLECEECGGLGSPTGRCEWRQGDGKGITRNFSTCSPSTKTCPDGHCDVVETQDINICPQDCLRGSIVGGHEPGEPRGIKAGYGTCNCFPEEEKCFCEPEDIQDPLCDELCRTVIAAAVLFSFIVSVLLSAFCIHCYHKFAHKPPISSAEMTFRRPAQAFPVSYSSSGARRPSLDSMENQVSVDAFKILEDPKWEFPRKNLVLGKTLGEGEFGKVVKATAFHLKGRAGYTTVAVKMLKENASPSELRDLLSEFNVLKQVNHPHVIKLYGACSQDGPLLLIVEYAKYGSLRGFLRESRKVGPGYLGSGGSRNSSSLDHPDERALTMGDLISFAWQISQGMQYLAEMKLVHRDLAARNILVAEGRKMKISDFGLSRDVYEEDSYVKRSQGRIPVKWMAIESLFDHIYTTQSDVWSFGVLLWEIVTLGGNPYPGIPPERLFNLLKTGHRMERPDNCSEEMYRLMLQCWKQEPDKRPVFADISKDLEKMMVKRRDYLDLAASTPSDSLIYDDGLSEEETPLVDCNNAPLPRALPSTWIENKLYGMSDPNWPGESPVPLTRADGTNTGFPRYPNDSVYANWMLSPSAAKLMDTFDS
# T5 sequence (P04629 33-796): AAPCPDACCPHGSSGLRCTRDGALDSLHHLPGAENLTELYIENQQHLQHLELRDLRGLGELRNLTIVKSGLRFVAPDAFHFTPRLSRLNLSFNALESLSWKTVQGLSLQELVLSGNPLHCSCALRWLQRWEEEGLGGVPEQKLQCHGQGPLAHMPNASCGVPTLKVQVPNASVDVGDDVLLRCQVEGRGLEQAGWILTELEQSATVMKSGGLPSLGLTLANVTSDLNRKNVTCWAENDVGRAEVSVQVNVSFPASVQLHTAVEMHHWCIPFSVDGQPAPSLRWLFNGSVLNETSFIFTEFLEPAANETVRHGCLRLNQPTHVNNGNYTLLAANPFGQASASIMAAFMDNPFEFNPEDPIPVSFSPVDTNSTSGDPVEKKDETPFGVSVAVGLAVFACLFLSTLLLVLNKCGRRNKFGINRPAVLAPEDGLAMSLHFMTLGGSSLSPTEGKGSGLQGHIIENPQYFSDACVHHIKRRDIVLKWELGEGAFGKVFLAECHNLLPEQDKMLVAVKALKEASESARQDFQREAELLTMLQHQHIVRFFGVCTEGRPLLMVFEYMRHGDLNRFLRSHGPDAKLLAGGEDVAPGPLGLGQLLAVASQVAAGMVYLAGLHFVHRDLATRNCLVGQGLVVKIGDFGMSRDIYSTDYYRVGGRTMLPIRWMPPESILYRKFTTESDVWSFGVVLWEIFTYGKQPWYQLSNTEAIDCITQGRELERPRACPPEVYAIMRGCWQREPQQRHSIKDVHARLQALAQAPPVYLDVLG
# T1 sequence (P12931 whole entry): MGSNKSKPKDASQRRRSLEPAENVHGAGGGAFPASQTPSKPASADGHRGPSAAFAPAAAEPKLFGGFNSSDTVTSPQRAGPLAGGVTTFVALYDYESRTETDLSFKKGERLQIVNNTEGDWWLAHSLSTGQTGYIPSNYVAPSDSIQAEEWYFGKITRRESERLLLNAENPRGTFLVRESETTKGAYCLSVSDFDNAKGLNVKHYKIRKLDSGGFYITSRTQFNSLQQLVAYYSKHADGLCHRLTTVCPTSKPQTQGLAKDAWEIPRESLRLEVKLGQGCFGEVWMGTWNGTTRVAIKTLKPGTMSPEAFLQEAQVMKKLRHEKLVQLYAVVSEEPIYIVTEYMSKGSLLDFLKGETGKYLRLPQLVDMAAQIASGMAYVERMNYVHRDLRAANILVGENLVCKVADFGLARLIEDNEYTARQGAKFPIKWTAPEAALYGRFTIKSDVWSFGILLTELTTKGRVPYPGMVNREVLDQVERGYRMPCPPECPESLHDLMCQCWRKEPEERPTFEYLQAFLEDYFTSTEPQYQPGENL
inhibition at 1 µM (c-Src kinase) [%],inhibition at 1 µM (Aurora-A kinase) [%],inhibition at 1 µM (Flt3 kinase) [%],inhibition at 1 µM (Ret kinase) [%],inhibition at 1 µM (TrkA Kinase) [%],SMILES
< 50,> 90,< 50,< 50,< 50,CCc1nc(Nc2ccc(NC(=O)Nc3ccccc3C)cc2)nc(Nc2cc(C)[nH]n2)n1 [Example 23]
< 50,> 90,50 to 90,50 to 90,50 to 90,Cc1cnc(Nc2nc(Sc3ccc(NC(=O)Nc4ccccc4)cc3)nc(N3CCN(C)CC3)n2)s1 [Example 4]
< 50,50 to 90,< 50,> 90,< 50,CCc1nc(Nc2ccc(NC(=O)NCc3ccccc3)cc2)nc(Nc2cc(C)[nH]n2)n1 [Example 25]
< 50,50 to 90,50 to 90,< 50,50 to 90,Cc1cnc(Nc2nc(Sc3cccc(N)c3)nc(N3CCN(C)CC3)n2)s1 [Example 3]
< 50,50 to 90,< 50,< 50,< 50,CCc1nc(Nc2ccc(NC(=O)NC(C)C)cc2)nc(Nc2cc(C)n(C(=O)NC(C)C)n2)n1 [Example 14]
< 50,< 50,< 50,< 50,< 50,CCNC(=O)Nc1ccc(Nc2nc(CC)nc(Nc3cc(C)n(C(=O)NCC)n3)n2)cc1 [Example 13]
< 50,> 90,< 50,50 to 90,< 50,CCc1nc(Nc2ccc(NC(=O)Nc3ccc(C(F)(F)F)cc3)cc2)nc(Nc2cc(C)[nH]n2)n1 [Example 12]
50 to 90,50 to 90,> 90,50 to 90,50 to 90,Cc1cnc(Nc2nc(Sc3ccc(N)cc3)nc(N3CCN(C)CC3)n2)s1 [Example 2]
< 50,< 50,< 50,< 50,< 50,CCc1nc(Nc2ccc(NC(=O)NC(C)C)cc2)nc(Nc2cc(C)[nH]n2)n1 [Example 21]
< 50,< 50,< 50,< 50,< 50,CCc1nc(Nc2ccc(NC(=O)Nc3ccccc3)cc2)nc(Nc2ncc(C)s2)n1 [Example 15]
< 50,50 to 90,50 to 90,50 to 90,< 50,CCc1nc(Nc2ccc(NC(=O)Nc3ccc(OC)cc3)cc2)nc(Nc2cc(C)[nH]n2)n1 [Example 24]
< 50,< 50,< 50,< 50,< 50,CCNC(=O)Nc1ccc(Nc2nc(CC)nc(Nc3cc(C)[nH]n3)n2)cc1 [Example 22]
